Measurements from patent US20220296590A1, “STEREOISOMERS OF THE COMPOUND 3-(BENZO[D][1,3]DIOXOL-5-YL)-7-(1-HYDROXYPROPAN-2-YL)-1-(1H-INDOL-3-YL)-6,7-DIHYDRO-3H-OXAZOL[3,4-A]PYRAZINE-5,8-DIONE AND USE THEREOF AS AN ANTITUMOR AGENT AND PHOSPHODIESTERASE ENZYME INHIBITOR” (BIOLAB SANUS FARMACEUTICA LTDA, priority 2019, published 2022).

Assays:
[1] = tested on: MNK45-human gastric cancer; test: Antiproliferative effect in tumor cell culture (CYQuant intracellular DNA, 72 hours), MNK45; format: cell-based
Description: (§1) For the execution of the assay, the compounds are diluted in DMSO 100% (v/v) at a concentration of 1000 μM and subsequently diluted in a Sodium Chloride solution 0.9% to obtain the storage solutions of interest for use in the assays. The final concentration of interest will be directly diluted in the cell culture medium. For the assay there are used the following tumor cell lineages: PC3-human prostate cancer cells; LNCAP-human prostate cancer cells; DU145-human prostate cancer; MNK45-human gastric cancer and RT4-human bladder cancer cells. The tumor cell lineages are maintained in culture according to standard procedures established by the Cell Bank of Rio de Janeiro (lineage place of origin). For the assay, the tumor cells are seeded in the concentration of 10.000 cells per well (final volume of the reaction of […]), the plate is incubated for 8 hours, for the cells to adhere to the wall of the wells. After this period, the plate is divided in groups: • (a) test group: […] of the samples were added (test compound) in the concentrations of interest; • (b) positive control group: […] of culture medium were added (100% of cell proliferation); • (c) negative control group: 200 mL of culture medium and […] of the vehicle used were added to dilute the compounds (without cells—zero proliferation); • (d) control group: […] were added of the vehicle used to dilute the compounds. This group is important to evaluate whether the vehicle used interferes in the cell proliferation. OBSERVATION: the treatment with the concentrations of samples (test compounds) and of the controls are carried out in triplicate. Incubate the plate for 72 hours in a CO2 kiln at 37° C. After the incubation period, add […]/well of the solution with DNA marker from the CYQuant Kit and incubate the plate, for 60 minutes, in a CO2 incubator at 37° C. The fluorescence intensity is determined using a fluorescence microplate reader with 485 nm excitation and 530 nm emission detection. The results obtained were normalized relative to the positive control group (100% proliferation). For the compounds there are prepared the storage solutions in the concentrations of: 100 nM, 1 μM, 3 μM, 5 μM, 10 μM and 30 μM (DMSO 10% v/v). While the final concentrations in the test are of: 10 nM, 100 nM, 300 nM, 500 nM, 1000 nM and 3000 nM (in DMSO 1% v/v).

[2] = tested on: DU145-human prostate cancer; test: Antiproliferative effect in tumor cell culture (CYQuant intracellular DNA, 72 hours), DU145; format: cell-based; conditions: for % Cell Proliferation Inhibition (intracellular DNA) DU145 (average ± E.P.M.): 72 hours
Description: as §1

PDE5A1 enzyme = target: T1, PDE5A1 enzyme (Homo sapiens, UniProt O76074); test: In vitro inhibition of human phosphodiesterase enzyme 5 (BPS Bioscience PDE5A1 assay kit, fluorescence polarization); format: biochemical
T1 construct: purchased BPS Bioscience 60350
Description: The evaluation of the compound is studied using BPS Bioscience enzyme assay kit (catalogue 60350). The PDE5A1 Assay kit is designed for identification of PDE5A1 inhibitors using fluorescence polarization. The assay is based on the binding of a fluorescent nucleotide monophosphate generated by PDE5A1 enzyme to the binding agent.
In this methodology only two simple steps on a microtiter plate are required for PDE5A1 reactions. First, the fluorescently labeled cGMP is incubated with PDE5A1 for 1 hour. Second, the binding agent is added to the reaction mixture to produce a change in fluorescent polarization that can then be measured using a fluorescence reader equipped for the measurement of fluorescence polarization.
For the assay the storage reagent FAM-Cyclic-3′, 5′-GMP (20 μM) is diluted with PDE assay buffer to achieve the solution with a […] concentration; the PDE5A1 enzyme is thawed and diluted with the PDE buffer obtaining a PDE5A1 solution at 10 pg/mL.
The assay compounds are diluted with DMSO 100% (v/v) at a concentration of 1000 μM and subsequently diluted in a Sodium chloride 0.9% solution to obtain a curve of concentrations of interest for the assay. The compounds are diluted in concentrations of: 10 nM, 30 nM, 50 nM, 100 nM, 300 nM, 500 nM, 1 μM, 3 μM, 5 μM (DMSO 10% v/v).
The study is comprised of groups: (i) substrate control; (ii) positive control (KIT); (iii) samples in several concentrations; (iv) tadalafil (comparative control). Each parameter (group) is triple labeled.
For the 4 groups there is added, to each microplate well, […] of the FAM-Cyclic-3′ reagent, 5′-GMP (200 μM).
To the substrate control group there is added, to each well, […] of vehicle (DMSO 10% v/v) and […] PDE Buffer.
To the positive control group there is added, to each well, […] of vehicle (DMSO 10% v/v).
To the tadalafil group: there is added […] of the solution in the concentrations of interest.
To the test group there is added […] of the sample solution (test compound)
OBSERVATION: the parameters tested are in triplicate.
To begin the reaction, add […] of the PDE5A1 enzyme (diluted as described above) to the microplate wells designated as Positive Control and Samples (test and tadalafil), and incubate the microplate, for 1 hour, at a temperature of 25° C.
After the incubation period, the reaction is interrupted by the addition, in all the wells, of […] of the binding agent solution and the microplate is incubated for 30 minutes, under light stirring, at room temperature. The reading of the microplate is carried out in Polarized Fluorescence (475-495 nm—excitation and 518-538 nm—emission detection) 500 nanoseconds integration time.

[3] = tested on: LNCAP-human prostate cancer cells; test: Antiproliferative effect in tumor cell culture (CYQuant intracellular DNA, 72 hours), LNCAP; format: cell-based; conditions: for % Cell Proliferation Inhibition (intracellular DNA) LNCAP (average ± E.P.M.): 72 hours
Description: as §1

[4] = tested on: PC3-human prostate cancer cells; test: Antiproliferative effect in tumor cell culture (CYQuant intracellular DNA, 72 hours), PC3; format: cell-based; conditions: for % Cell Proliferation Inhibition (intracellular DNA) PC-3 (average ± E.P.M.): 72 hours
Description: as §1

[5] = tested on: RT4-human bladder cancer cells; test: Antiproliferative effect in tumor cell culture (CYQuant intracellular DNA, 72 hours), RT4; format: cell-based; conditions: for % Cell Proliferation Inhibition (intracellular DNA) RT4 (average ± E.P.M.): 72 hours
Description: as §1

Q: Which results are given for `CC(CO)N1CC(=O)N2C(=C(c3c[nH]c4ccccc34)OC2c2ccc3c(c2)OCO3)C1=O` (mixture of isomers) [BL-380, (R)-3-(benzo[d][1,3]dioxol-5-yl) -7-((R)-1-hydroxypropan-2-yl)-1-(1H-indole-3-yl)-6,7-dihydro-3H-oxazole[3,4-a]pyrazine-5,8-dione with (S)-3-(benzo[d][1,3]dioxol-5-yl)-7-((R)-1-hydroxypropan-2-yl)-1-(1H-indole-3-yl)-6,7-dihydro-3H-oxazole[3,4-a]pyrazine-5,8-dione]?
A: % Cell Proliferation Inhibition (intracellular DNA) MNK45 (average ± E.P.M.) ([1]; 100 nM, 0.1 µM): 7 ± 2%; % Cell Proliferation Inhibition (intracellular DNA) MNK45 (average ± E.P.M.) ([1]; 300 nM, 0.3 µM): 0%; % Cell Proliferation Inhibition (intracellular DNA) MNK45 (average ± E.P.M.) ([1]; 500 nM, 0.5 µM): 0%; % Cell Proliferation Inhibition (intracellular DNA) MNK45 (average ± E.P.M.) ([1]; 1000 nM, 1 µM): 0%; % Cell Proliferation Inhibition (intracellular DNA) MNK45 (average ± E.P.M.) ([1]; 3000 nM, 3 µM): 16 ± 5%; % Cell Proliferation Inhibition (intracellular DNA) DU145 (average ± E.P.M.) ([2]; 100 nM, 0.1 µM): 12 ± 4%; % Cell Proliferation Inhibition (intracellular DNA) DU145 (average ± E.P.M.) ([2]; 300 nM, 0.3 µM): 10 ± 5%; % Cell Proliferation Inhibition (intracellular DNA) DU145 (average ± E.P.M.) ([2]; 500 nM, 0.5 µM): 12 ± 2%; % Cell Proliferation Inhibition (intracellular DNA) DU145 (average ± E.P.M.) ([2]; 1000 nM, 1 µM): 10 ± 3%; % Cell Proliferation Inhibition (intracellular DNA) DU145 (average ± E.P.M.) ([2]; 3000 nM, 3 µM): 31 ± 5%; antiproliferative effect, result in words ([2]; DU145 prostate cancer tumor lineage): antiproliferative effect; % of Inhibition (PDE5A1) (PDE5A1 enzyme; 10 nM): 0%; concentration as from which PDE5 inhibition was observed (PDE5A1 enzyme; 10 nM to 5000 nM tested): ≥ 300 nM; % of Inhibition (PDE5A1) (PDE5A1 enzyme; 30 nM): 0%; % of Inhibition (PDE5A1) (PDE5A1 enzyme; 50 nM): 0%; % of Inhibition (PDE5A1) (PDE5A1 enzyme; 100 nM): 0%; % of Inhibition (PDE5A1) (PDE5A1 enzyme; 300 nM): 15 ± 3%; % of Inhibition (PDE5A1) (PDE5A1 enzyme; 500 nM, 0.5 µM): 25 ± 3%; % of Inhibition (PDE5A1) (PDE5A1 enzyme; 1000 nM, 1 µM): 55 ± 4%; % of Inhibition (PDE5A1) (PDE5A1 enzyme; 3000 nM, 3 µM): 65 ± 2%; % of Inhibition (PDE5A1) (PDE5A1 enzyme; 5000 nM): 78 ± 1%; PDE5 inhibition, result in words (PDE5A1 enzyme; over the concentrations tested): capable of inhibiting the PDE5 in a dose-dependent manner; % Cell Proliferation Inhibition (intracellular DNA) LNCAP (average ± E.P.M.) ([3]; 10 nM, 0.01 µM): 26 ± 10%; % Cell Proliferation Inhibition (intracellular DNA) LNCAP (average ± E.P.M.) ([3]; 100 nM, 0.1 µM): 12 ± 3%; % Cell Proliferation Inhibition (intracellular DNA) LNCAP (average ± E.P.M.) ([3]; 300 nM, 0.3 µM): 29 ± 6%; % Cell Proliferation Inhibition (intracellular DNA) LNCAP (average ± E.P.M.) ([3]; 500 nM, 0.5 µM): 27 ± 2%; % Cell Proliferation Inhibition (intracellular DNA) LNCAP (average ± E.P.M.) ([3]; 1000 nM, 1 µM): 37 ± 2%; % Cell Proliferation Inhibition (intracellular DNA) LNCAP (average ± E.P.M.) ([3]; 3000 nM): 48 ± 6%; antiproliferative effect, result in words ([3]; LNCAP prostate cancer tumor lineage): antiproliferative effect; % Cell Proliferation Inhibition (intracellular DNA) PC-3 (average ± E.P.M.) ([4]; 10 nM, 0.01 µM): 39 ± 6%; % Cell Proliferation Inhibition (intracellular DNA) PC-3 (average ± E.P.M.) ([4]; 100 nM, 0.1 µM): 25 ± 5%; % Cell Proliferation Inhibition (intracellular DNA) PC-3 (average ± E.P.M.) ([4]; 300 nM, 0.3 µM): 28 ± 2%; % Cell Proliferation Inhibition (intracellular DNA) PC-3 (average ± E.P.M.) ([4]; 500 nM, 0.5 µM): 48 ± 6%; % Cell Proliferation Inhibition (intracellular DNA) PC-3 (average ± E.P.M.) ([4]; 1000 nM, 1 µM): 40 ± 3%; % Cell Proliferation Inhibition (intracellular DNA) PC-3 (average ± E.P.M.) ([4]; 3000 nM): 54 ± 4%; antiproliferative effect, result in words ([4]; PC3 prostate cancer tumor lineage): antiproliferative effect; % Cell Proliferation Inhibition (intracellular DNA) RT4 (average ± E.P.M.) ([5]; 100 nM, 0.1 µM): 8 ± 6%; % Cell Proliferation Inhibition (intracellular DNA) RT4 (average ± E.P.M.) ([5]; 300 nM, 0.3 µM): 5 ± 5%; % Cell Proliferation Inhibition (intracellular DNA) RT4 (average ± E.P.M.) ([5]; 500 nM, 0.5 µM): 3 ± 5%; % Cell Proliferation Inhibition (intracellular DNA) RT4 (average ± E.P.M.) ([5]; 1000 nM, 1 µM): 3 ± 1%; % Cell Proliferation Inhibition (intracellular DNA) RT4 (average ± E.P.M.) ([5]; 3000 nM, 3 µM): 58 ± 4%; antiproliferative effect, result in words ([5]; RT4 bladder cancer tumor lineage): antiproliferative effect
